“And” between values parts separate entries of the source, which are not always exact repeats. Equal values may be shown once.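 Results reflect a 48-hour exposure of cells in 96-well plates to compound at five concentrations. Abbreviation: GI50, concentration required for 50% inhibition of growth. At the TGI there is no net growth.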
Legend:
Experiment in all cases: NCI-60 cell line screen, 48 h
MDA-MB-435 = test system: MDA-MB-435
A498 renal = test system: A498 renal
DU-145 prostate = test system: DU-145 prostate
MCF7 breast = test system: MCF7 breast
CAKI-1 renal = test system: CAKI-1 renal
OVCAR-4 ovarian = test system: OVCAR-4 ovarian
SF-268 CNS = test system: SF-268 CNS
KM12 colon = test system: KM12 colon
BT-549 breast = test system: BT-549 breast
COLO 205 colon = test system: COLO 205 colon

| Compound | TGI (MDA-MB-435) [µM] | TGI (A498 renal) [µM] | TGI (DU-145 prostate) [µM] | TGI (MCF7 breast) [µM] | GI50 (CAKI-1 renal) [µM] | TGI (CAKI-1 renal) | GI50 (OVCAR-4 ovarian) [µM] | GI50 (SF-268 CNS) [µM] | GI50 (KM12 colon) [µM] | TGI (KM12 colon) | TGI (BT-549 breast) [µM] | GI50 (COLO 205 colon) [µM] | TGI (OVCAR-4 ovarian) [µM] | TGI (SF-268 CNS) [µM] | TGI (COLO 205 colon) [µM] | GI50 (MDA-MB-435) [µM] | GI50 (A498 renal) [µM] | GI50 (DU-145 prostate) [µM] | GI50 (MCF7 breast) [µM] | GI50 (BT-549 breast) [µM] |
| --- | --- | --- | --- | --- | --- | --- | --- | --- | --- | --- | --- | --- | --- | --- | --- | --- | --- | --- | --- | --- |
| COc1cccc2c1C(=O)c1c(O)c3c(c(O)c1C2=O)C[C@@](O)(C(=O)CO)CC3OC1CC(N)C(OC2CCCCO2)C(C)O1 (some centres not stated) | 0.229 | 1.16 | 0.0489 | 1.08 | 0.523 | 5.38 µM and 2.76 µM | 1.46 | 0.00705 | 1.19 | 0.583 µM and 3.09 µM | 0.481 | 0.02 |  |  |  |  |  |  |  |  |
| O/N=C(\CC(O)(C(F)(F)F)C(F)(F)F)c1cccs1 | > 10 | > 10 | > 10 | > 10 |  | > 10 µM |  |  |  | > 10 µM | > 10 |  | > 10 | > 10 | > 10 |  |  |  |  |  |
| O=C1C=C(NCCO)c2nccc3c2c1nc1ccccc13 | > 100 | > 100 | > 100 | > 100 | 23.3 | 82.2 µM | 41.3 | 26.4 | 21 | > 100 µM | > 100 | 14.8 | > 100 | > 100 | > 100 | 29.3 | 38.2 | 24.8 | 20.5 | 36 |
| Cn1c(CCCC(=O)O)nc2cc(N(CCCl)CCCl)ccc21 | > 100 | > 75 | > 100 | > 100 | 53.2 | > 86.8 µM | > 100 | 68.5 | > 100 | > 100 µM | > 100 | > 95.8 | > 100 | > 100 | > 100 | > 75.5 | > 32.6 | > 80.6 | 69.2 | > 77.5 |
| CC[C@H](C)[C@@H]([C@@H](CC(=O)N1CCC[C@H]1[C@H](OC)[C@@H](C)C(=O)NCCc1ccccc1)OC)N(C)C(=O)C(NC(=O)[C@H](C(C)C)N(C)C)C(C)C (some centres not stated) | 0.000192 | > 10 | 0.000963 | > 10 |  | > 10 µM |  |  |  | 0.00178 µM | > 10 |  | > 10 | > 10 | 0.000267 |  |  |  |  |  |
| CCc1nc(C)cn1C(=O)OCc1nc2nc(Cl)nc(N3CCOCC3)c2[nH]1 | 2.71 | 3.54 | 2.52 | 2.44 | 0.406 | 1.71 µM | 1.49 | 1.53 | 1.56 | 3.29 µM | 4.26 | 1.37 | 2.93 | 3.06 | 2.94 | 1.36 | 1.92 | 1.22 | 0.633 | 1.55 |
| CCN(CC)CCNC(=O)c1cccc2c1-c1ccccc1C2=O | > 100 | > 100 | > 100 | > 100 | > 100 | > 100 µM | > 100 | > 100 | > 100 | > 100 µM | > 100 | > 100 | > 100 | > 100 | > 100 | > 100 | > 100 | > 100 | > 100 | > 100 |
| O=S1(=O)c2ccccc2N(c2ccccc2)c2nnnn21 | > 100 | 55.4 | > 100 | > 100 |  | 36.9 µM |  |  |  | > 100 µM | 70.5 |  | 70.4 | > 100 | 48.5 |  |  |  |  |  |
| CCN1CCN(c2nc(C)cc(NCc3cc(Nc4ccnc5cc(Cl)ccc45)ccc3F)n2)CC1 | 2.91 | 4.01 | 12.1 | 5.31 | 1.83 | 4.72 µM | 1.59 | 1.89 | 2.95 | 10.5 µM | 4.28 | 1.77 | 7.7 | 5.79 | 3.95 | 1.5 | 1.94 | 3.23 | 1.81 | 1.62 |
| Cc1ccc(C[As+](c2ccccc2)(c2ccccc2)c2ccccc2)cc1 | 6.34 | 5.07 | > 56.8 | 17.2 | 8.85 | 43.9 µM | 0.778 | 1.08 | 0.385 | 4.46 µM | 8.26 | 0.412 | > 100 | > 42.2 | 2.45 | 0.552 | 0.581 | 1.36 | 0.621 | 0.392 |
| COc1cc(C(=O)/C=C/c2cc(-c3ccc4c(c3)OCO4)n[nH]2)cc(OC)c1OC | 5.8 | 4.65 | 9.16 | 2.88 | 1.99 | 5.65 µM | 0.885 | 2.45 | 1.86 | 3.85 µM | 5 | 2.08 | 4.24 | 7.64 | 4.66 | 2.28 | 1.75 | 2.92 | 1.06 | 2.02 |

Source: PubChem BioAssay (NCI)
